Inconclusive results and toxic doses are left out. Non-standard residues stand in square brackets, D forms with d. Residues, ends and D or L forms follow the SMILES beside them. ξ: configuration not given here. *: point of attachment. Trt = c1ccc(C(c2ccccc2)(c2ccccc2)*)cc1; Cbz = O=C(OCc1ccccc1)*; OtBu = CC(C)(C)O*; ξC = NC(CS)C(=O)O
Test system: CD2F1 mice, L1210 leukemia ip, survival T/C
Assay: NCI In Vivo Anticancer Drug Screen. Data for tumor model L1210 Leukemia (intraperitoneal) in CD2F1 (CDF1) mice
Settings: endpoint: mean survival time, higher = longer survival
How it was run: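 In this screen, transplantable tumors were grown in mice given either the compound or its vehicle. Results were expressed as the treated measurement relative to the control measurement.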

[1] = dose: 50.0 mg/kg/injection, schedule: Q01DX009 (ip), vehicle: saline with Tween-80
[2] = dose: 100.0 mg/kg/injection, schedule: Q01DX009 (ip), vehicle: saline with Tween-80
[3] = dose: 100.0 mg/kg/injection, schedule: Q04DX003 (ip), vehicle: saline with Tween-80
[4] = dose: 200.0 mg/kg/injection, schedule: Q01DX009 (ip), vehicle: saline with Tween-80
[5] = dose: 200.0 mg/kg/injection, schedule: Q04DX003 (ip), vehicle: saline with Tween-80
[6] = dose: 400.0 mg/kg/injection, schedule: Q04DX003 (ip), vehicle: saline with Tween-80
[7] = dose: 100.0 mg/kg/injection, schedule: Q01DX001 (ip), vehicle: saline
[8] = dose: 3.13 mg/kg/injection, schedule: Q04DX003 (ip), vehicle: distilled water + Tween-80
[9] = dose: 6.25 mg/kg/injection, schedule: Q04DX003 (ip), vehicle: distilled water + Tween-80
[10] = dose: 12.5 mg/kg/injection, schedule: Q04DX003 (ip), vehicle: distilled water + Tween-80
[11] = dose: 25.0 mg/kg/injection, schedule: Q04DX003 (ip), vehicle: distilled water + Tween-80
[12] = dose: 50.0 mg/kg/injection, schedule: Q04DX003 (ip), vehicle: distilled water + Tween-80

In the case of Clc1ccc2ccccc2c1C(Cl)Cl, the T/C (dose: 25.0 mg/kg/injection, schedule: Q01DX009 (ip), vehicle: saline with Tween-80) is reported as 96 % of control, the T/C [1] is reported as 95 % of control and the T/C [2] is reported as 98 % of control. The T/C [3] was 91 % of control, the T/C [4] was 102 % of control and the T/C [5] was 98 % of control. For the same compound, the T/C (dose: 400.0 mg/kg/injection, schedule: Q01DX009 (ip), vehicle: saline with Tween-80) was 102 % of control and the T/C [6] was 93 % of control.

CC(=O)c1ccc(-c2ccccc2)cc1 was tested, and the T/C (dose: 100.0 mg/kg/injection, schedule: Q04DX003 (ip), vehicle: Klucel (hydroxypropylcellulose) (HPC)) was 102 % of control, the T/C (dose: 200.0 mg/kg/injection, schedule: Q04DX003 (ip), vehicle: Klucel (hydroxypropylcellulose) (HPC)) was 103 % of control and the T/C (dose: 400.0 mg/kg/injection, schedule: Q04DX003 (ip), vehicle: Klucel (hydroxypropylcellulose) (HPC)) was 102 % of control.

CC(C)(C)OC(=O)CNC(=O)CNC(=O)CNC(=O)C(CSC(c1ccccc1)(c1ccccc1)c1ccccc1)NC(=O)OCc1ccccc1 (stereo not drawn) (Cbz-[ξC](Trt)GGG-OtBu) was tested, and the T/C [3] was 101 % of control, the T/C [5] was 95 % of control and the T/C [6] was 92 % of control.

CCOP(=[Se])(OCC)[Se][Se][Se]P(=[Se])(OCC)OCC was tested, and the T/C [7] was 108 % of control.

With COc1cccc2c1CCC13OC(O)CC21CCCC3C#N (stereo not drawn) the T/C [7] was 95 % of control, the T/C (dose: 200.0 mg/kg/injection, schedule: Q01DX001 (ip), vehicle: saline) was 95 % of control and the T/C (dose: 400.0 mg/kg/injection, schedule: Q01DX001 (ip), vehicle: saline) was 90 % of control.

In the case of Cc1ccc(NCC(O)C(O)C(O)CO)cc1C (stereo not drawn), the T/C (dose: 100.0 mg/kg/injection, schedule: Q04DX002 (ip), vehicle: saline with Tween-80) is reported as 106 % of control and the T/C (dose: 200.0 mg/kg/injection, schedule: Q04DX002 (ip), vehicle: saline with Tween-80) is reported as 103 % of control.

With C/C=C1\OC(n2cnc3c(N)ncnc32)C(O)C1O (stereo not drawn) the T/C (dose: 12.5 mg/kg/injection, schedule: Q01DX005 (ip), vehicle: distilled water + Tween-80) was 101 % of control, the T/C (dose: 25.0 mg/kg/injection, schedule: Q01DX005 (ip), vehicle: distilled water + Tween-80) was 109 % of control and the T/C (dose: 50.0 mg/kg/injection, schedule: Q01DX005 (ip), vehicle: distilled water + Tween-80) was 113 % of control. The T/C (dose: 50.0 mg/kg/injection, schedule: Q01DX009 (ip), vehicle: distilled water + Tween-80) was 112 % of control, the T/C (dose: 100.0 mg/kg/injection, schedule: Q01DX005 (ip), vehicle: distilled water + Tween-80) was 119 % of control and the T/C (dose: 100.0 mg/kg/injection, schedule: Q01DX009 (ip), vehicle: distilled water + Tween-80) was 124 % of control. For the same compound, the T/C (dose: 200.0 mg/kg/injection, schedule: Q01DX009 (ip), vehicle: distilled water + Tween-80) was 157 % of control.

For Brc1ccc(N=C=C(c2ccccc2)c2ccccc2)cc1, the T/C [1] was 98 % of control, the T/C [2] was 96 % of control and the T/C [3] was 92 % of control. For the same compound, the T/C [4] was 102 % of control and the T/C [5] was 101 % of control.

For OCC1OC(n2cnc3c(NCCc4ccccc4)ncnc32)C(O)C1O (stereo not drawn), the T/C (dose: 12.5 mg/kg/injection, schedule: Q01DX005 (ip), vehicle: other) was 101 % of control, the T/C (dose: 25.0 mg/kg/injection, schedule: Q01DX005 (ip), vehicle: other) was 110 % of control and the T/C (dose: 50.0 mg/kg/injection, schedule: Q01DX005 (ip), vehicle: other) was 92 % of control.

O=S=Nc1ccc(S(=O)(=O)c2ccc(N=S=O)cc2)cc1 was tested, and the T/C [1] was 96 % of control, the T/C [3] was 95 % of control and the T/C [4] was 101 % of control. The T/C [5] was 95 % of control.

[Cl][Pt+2][Cl].[NH-]c1nc(-c2ccccc2)cs1.[NH-]c1nc(-c2ccccc2)cs1 was tested, and the T/C [8] was 101 % of control, the T/C [9] was 101 % of control and the T/C [10] was 96 % of control. For the same compound, the T/C [11] was 102 % of control, the T/C [12] was 96 % of control and the T/C (dose: 100.0 mg/kg/injection, schedule: Q04DX003 (ip), vehicle: distilled water + Tween-80) was 98 % of control. The T/C (dose: 200.0 mg/kg/injection, schedule: Q04DX003 (ip), vehicle: distilled water + Tween-80) was 98 % of control.

For O=C(O)CC(=O)O.[NH-]CCC1CCCC[N-]1.[Pt+2] (stereo not drawn), the T/C [8] was 111 % of control, the T/C [9] was 108 % of control and the T/C [10] was 114 % of control. For the same compound, the T/C [11] was 114 % of control, the T/C (dose: 25.0 mg/kg/injection, schedule: Q04DX003 (ip), vehicle: water) was 108 % of control and the T/C [12] was 113 % of control. The T/C (dose: 50.0 mg/kg/injection, schedule: Q04DX003 (ip), vehicle: water) was 120 % of control.

Reference: PubChem BioAssay AID256 (DTP/NCI, 2004)
